Source: patent publication US11738099B2, “Molecular probes and methods of use” (CASE WESTERN RESERVE UNIVERSITY, priority 2014, dated 2023)
Blank lines part the entries; values can stand above or below the compound they belong to. Where no end group is shown, it is not given here.

Tests used:
EDB fragment = EDB fragment (Homo sapiens, UniProt P02751); experiment: Peptide ELISA of HRP-conjugated peptides on coated EDB; assay type: binding; conditions: HRP conjugates
Protocol: A linear version of ZD2 (CTVRTSADA) SEQ ID NO: 42 was synthesized so that sulfhydryl group on cysteine could be used for conjugation with maleimide-activated […] (Sigma-Aldrich). Conjugation was carried out as instructed in the manual. The product of conjugation, ZD2-HRP, was used for peptide ELISA assay after coating a 96-well plate with purified EDB. 0.5% BSA in PBS was used to block non-specific binding for later steps. 0.39 μM to 50 μM of ZD2-HRP was incubated with coated EDB for an hour followed by extensive washing with TBST (0.1%). ABTS substrate was added subsequently and allowed to react for 30 min before the absorbance of solution in each well were measured at 415 nm. Non-coated wells added with ABTS were used as blank.
Cyclic ZD2 peptide (CTVRTSADC) (SEQ ID NO: 10) was synthesized using standard solid phase peptide chemistry and was characterized by MALDI-TOF mass spectrometry (FIG. 1C). The peptide was then labeled with a fluorescence chromophore cyanine 5 (Cy5) through a short PEG linker (NH2—(CH2CH2O)—CH2CH2COOH) to give a peptide fluorescence probe ZD2-Cy5. The peptide was also conjugated to peroxidase (ZD2-HRP) and the binding affinity of the peptide to EDB fragment was determined using peptide ELISA assay.
(§1) Similarly, CERAK-HRP is synthesized as a control.

EDA = EDA (Homo sapiens, UniProt P02751); experiment: ELISA of l-ZD2-HRP on EDA; assay type: binding
Description: as §1

[1] = test system: PC3 prostate tumor xenografts; experiment: T1-weighted MRI at 1 Tesla, PC3 tumors (Example 3); assay type: in vivo, mouse; conditions: 0.1 mmol/kg i.v., up to 30 min, 1 Tesla
Protocol: (§2) Male athymic nude mice were purchased from Case Comprehensive Cancer Center (Cleveland, Ohio, USA) and housed in the Animal Core Facility at Case Western Reserve University. All animal experiments were performed in accordance with the animal protocol approved by the CWRU Institutional Animal Care and Use Committee. Athymic nude male mice were subcutaneously injected with 100 μL cell suspension (4×10^7 cells/mL) in matrigel matrix (Corning Bioscience, Corning, N.Y.) to initiate tumors. Mice with tumors of 5-8 mm in diameter were used for imaging studies.
(§3) MR images of tumor bearing mice were acquired on an Aspect M3 small animal MRI scanner (1 Tesla). Mice were placed on a holder with the temperature maintained at 37° C., with isoflurane/oxygen mixture supplied to the mice through a nose cone. A thin catheter filled with PBS was connected to a tail vein of the mice. After mice were placed in the coil, a pilot scan was performed to adjust mice to the proper location in the coil. An axial T1 weighted sequence (TR=500 ms; TE=9 ms; Flip angle=90°; Field of view=3 cm×3 cm; Matrix size=128×128×8; slice thickness=2 mm; interslice distance=1 mm) was then used to acquire the images of the tumors before and 10 min, 20 min and 30 min after contrast injection. Images were exported into DICOM data, which were then processed and analyzed using Matlab (Natick, Mass., USA). The contrast to-noise ratio of tumors in the images were calculated as the difference between tumor mean intensity minus muscle mean intensity, divided by the noise.

PC3 tumors = experiment: In vivo MRI at 1.0 Tesla, PC3 tumor-bearing mice (Example 5); parameters: species or system mouse
Protocol: All MRI experiments were performed on an Aspect M3 compact MRI scanner (1.0 Telsa, Aspect Imaging. Israel). Imaging experiments were performed when the tumor size reached 5-8 mm in diameter. Each contrast agent was administered intravenously at a dose of 0.1 mmol/kg Gd^3+ after acquiring pre-contrast images. ProHance® (gadoteridol) was used as a control in the imaging experiments. Post-contrast images were obtained at 10 min intervals up to 30 min. Axial slices of the mouse at the tumor location were acquired using a T1-weighted spin echo sequence with the following parameters: TR=500 ms, TE=8.144 ms, slice thickness=1 mm, inter-slice gap=0.1 mm, field of view (FOV)=3 cm×3 cm. The total imaging time is 216 seconds. Contrast-to-noise ratio (CNR) at each time point was calculated by measuring the ratios of signal intensities in manually drawn regions of interest (ROIs) in tumor and muscle, and then normalizing to image noise. A 3D FLASH gradient echo sequence was used for whole-body coronal imaging. Imaging parameters were TR=17.362 ms, TE=6 ms, flip angle=15°, slice thickness=1.5 mm, FOV=[…]. The total imaging time is 226 seconds. Each of the 16 slices was acquired immediately after the acquisitions with the T1-weighted spin echo sequence.

[2] = test system: LNCaP prostate tumor xenografts; experiment: T1-weighted MRI at 1 Tesla, LNCaP tumors (Example 3); assay type: in vivo, mouse; conditions: 0.1 mmol/kg i.v., up to 30 min
Protocol: as §2
as §3, with “An axial T1 weighted sequence (TR=500 ms; TE=9 ms; Flip angle=90°; Field of view=3 cm×3 cm; Matrix size=128×128×8; slice thickness=2 mm; interslice distance=1 mm) was then used to acquire the images of the tumors before and 10 min, 20 min and 30 min after contrast injection.” left out

[3] = Relaxivity at 1.5T in water, 37° C.; assay type: physicochemical; conditions: listed as Gd(HP-DO3A)
Protocol: Relaxivity is an important parameter for an MR contrast agent. It reflects how the relaxation rate of the surrounding water proton changes as a function of concentration, and it is directly associated with the agent's contrast enhancing capability during imaging. The relaxivity of the 4 contrast agents was tested at 37° C. in water and compared to Gd(HP-DO3A), Gd-DOTA and ZD2-Gd(HP-DO3A) (FIG. 26). […] Compared to Gd(HP-DO3A), Gd-DOTA, the size increase of the targeted contrast agents due to the peptides and PEG spacer could result in an increase of τR,^[42, 43] thus leading to higher relaxivities.

[4] = r1 relaxivity by T1 mapping in PC3 tumor lysates; assay type: physicochemical
[5] = test system: PC3 prostate tumor xenografts; experiment: In vivo T1-weighted MRI at 7T, PC3 tumors; parameters: species or system mouse
Protocol: (§4) All MRI experiments were performed on a horizontal 7T Bruker scanner (Bruker Biospin Co., Billerica, Mass.). Imaging experiments were performed when the tumor size reached 5-8 mm in diameter. ZD2-Gd(HP-DO3A) was administered intravenously at the dose of 0.1 mmol/kg after acquiring pre-contrast images. Post-contrast images were obtained at 10 min interval up to 30 min. The axial slices of mouse at the tumor location were acquired using T1-weighted spin echo sequence with the following parameters: field of view (FOV): 3 cm; slice thickness: 1.2 mm; interslice distance: 1.2 mm; TR: 500 ms, TE: 8.1 ms; flip angle: 90°; average: 2; matrix size: 128×128. Contrast-to-noise ratio (CNR) at each time point was calculated by subtraction of the average signal intensity in the tumor and muscle, divided by the standard deviation of image noise. ProHance® (gadoteridol) was used as a control in the imaging experiments.

[6] = test system: LNCaP prostate tumor xenografts; experiment: In vivo T1-weighted MRI at 7T, LNCaP tumors; parameters: species or system mouse
Protocol: as §4

[7] = test system: PC-3 human prostate cancer xenograft; experiment: MRI of PC-3 xenograft (Example 2); assay type: in vivo, mouse; conditions: 0.1 mmol-Gd/kg intravenous
Description: The same contrast agent also works for prostate cancer imaging. We then tested the effectiveness of targeting EDB-FN with the contrast agent for prostate cancer MRI in male nude mice bearing primary PC-3 human prostate cancer xenograft.

4T1 metastatic tumors = experiment: Fluorescence detection of micrometastasis, breast cancer metastatic tumor model; assay type: in vivo, mouse; conditions: three hours after 10 nmol injection
Protocol: In order to construct a metastatic tumor model, 0.2×10^6 4T1 tumor cells undergone 5 days of TGFβ induction were injected through left ventricle of heart, resulting in the spread of tumor cells primarily in brain, lung, liver, lymph node, adrenal gland, chest, and bone marrow. Bioluminescent images of the mice at two weeks were used to monitor the growth of tumors. To assess the targeting capacity of l-ZD2-Cy5, brain and lung were harvested from the mice three hours after 10 nmol l-ZD2-Cy5 were injected. […] Normal brain and lung harvested from normal mice injected with l-ZD2-Cy5 were used as negative controls. Examination of bigger metastatic tumors in lymph nodes and adrenal gland, as shown in FIG. 8B further backed up the targeting efficiency of l-ZD2-Cy5.

TGFβ induced 4T1 cells = experiment: Binding of Cy5 probes to TGFβ induced 4T1 cells in vitro; assay type: cell-based
Protocol: As tumor cells produce EDB-FN to promote its migration, we further validated if Cy5 labeled l-ZD2 (l-ZD2-Cy5) can bind to TGFβ induced 4T1 cells in vitro. […] To explain this, we hypothesize that in this form of cell culture, no clot formation can take action to provide binding sites for CREKA-Cy5. To validate our hypothesis, we further produced a 3D culture system that mimics the “soil” of metastatic tumor. In the 3D culture system, 4T1 cells were cultured in a microenvironment containing TGFβ, collagen, and fibrin. […] In overall, these evidences point to the conclusion that the use of EDB-FN for targeting micrometastasis may be advantageous compared with Fibronectin-Fibrin complexes in that EDB-FN appears earlier than Fibronectin-Fibrin in the pre-metastatic niche.

[8] = 0.1 mmol/kg i.v., up to 30 min, 7T

EDA, sequence (P02751 1727-1814 limits assumed): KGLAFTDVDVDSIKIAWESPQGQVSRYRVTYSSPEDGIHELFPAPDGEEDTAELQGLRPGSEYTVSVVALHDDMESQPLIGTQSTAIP
EDB fragment, sequence (P02751 1271-1359 limits assumed): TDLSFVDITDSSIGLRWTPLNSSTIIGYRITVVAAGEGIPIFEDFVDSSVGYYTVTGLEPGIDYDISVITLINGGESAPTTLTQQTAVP

- binding to EDA (EDA): No binding
Compound: l-ZD2-HRP: NH2-TVRTSADC-COOH conjugated via cysteine thiol to maleimide activated horseradish peroxidase
- binding to EDB protein (EDB fragment): comparable to cyclic ZD2 with a slight increase in affinity

Compound: CC(O)CN1CCN(CC(=O)[O-])CCN(CC(=O)[O-])CCN(CC(=O)[O-])CC1.[Gd+3] (centres unmarked) [ProHance, gadoteridol, reference compound]
- signal enhancement in PC3 tumors [1]: modest contrast enhancement
- tumor signal enhancement, T1-weighted spin-echo (PC3 tumors; 0.1 mmol/kg i.v., at 10 minutes, remained at least 30 min): modest contrast enhancement
- time of peak CNR in PC3 tumors (PC3 tumors; Gd-DOTA conjugates and ProHance, 0.1 mmol/kg): 10 min
- CNR in PC3 tumors compared to the peptide targeted contrast agents (PC3 tumors; especially at 20 and 30 min): lower CNR
- signal enhancement in LNCaP tumors [2]: modest contrast enhancement
- r1 [3]: 2.9 mM⁻¹ s⁻¹
- r1 relaxivity [4]: 3.17 mM⁻¹ s⁻¹
- signal enhancement in PC3 tumors [5, 8]: modest contrast enhancement
- CNR in PC3 tumors ([5]; 10-30 min post-injection): 7˜11
- signal enhancement in LNCaP tumors [6, 8]: modest contrast enhancement
- CNR in LNCaP tumors ([6]; 10-30 min post-injection): 7˜10
- tumor contrast enhancement [7]: little contrast enhancement

Compound: l-ZD2-Cy5: Cy5 labeled l-ZD2 (TVRTSAD; also: Cy5 labeled, site not given here)
- binding to micrometastases on brain and lung (4T1 metastatic tumors): clearly outlined the micrometastases
- binding to induced 4T1 cells (TGFβ induced 4T1 cells; cell culture): bound to induced 4T1 cells within 3 hours
- binding in 3D culture of 4T1 cells (TGFβ induced 4T1 cells; microenvironment containing TGFβ, collagen, and fibrin): accumulated in the cell periphery starting from day 1
